Data: ChEMBL document CHEMBL3784917, “Recent Progress in Histone Demethylase Inhibitors” (J Med Chem, 2016)

Key:
[1] = target: T1, Lysine-specific demethylase 4A (Homo sapiens, UniProt O75164); assay: Inhibition of recombinant human N-terminal His-tagged KDM4A (1 to 350 residues) expressed in Escherichia coli using methylated biotin-H3K9 substrate preincubated for 10 mins followed by substrate addition measured after 10 mins by AlphaLisa assay
T1 sequence (O75164 whole entry): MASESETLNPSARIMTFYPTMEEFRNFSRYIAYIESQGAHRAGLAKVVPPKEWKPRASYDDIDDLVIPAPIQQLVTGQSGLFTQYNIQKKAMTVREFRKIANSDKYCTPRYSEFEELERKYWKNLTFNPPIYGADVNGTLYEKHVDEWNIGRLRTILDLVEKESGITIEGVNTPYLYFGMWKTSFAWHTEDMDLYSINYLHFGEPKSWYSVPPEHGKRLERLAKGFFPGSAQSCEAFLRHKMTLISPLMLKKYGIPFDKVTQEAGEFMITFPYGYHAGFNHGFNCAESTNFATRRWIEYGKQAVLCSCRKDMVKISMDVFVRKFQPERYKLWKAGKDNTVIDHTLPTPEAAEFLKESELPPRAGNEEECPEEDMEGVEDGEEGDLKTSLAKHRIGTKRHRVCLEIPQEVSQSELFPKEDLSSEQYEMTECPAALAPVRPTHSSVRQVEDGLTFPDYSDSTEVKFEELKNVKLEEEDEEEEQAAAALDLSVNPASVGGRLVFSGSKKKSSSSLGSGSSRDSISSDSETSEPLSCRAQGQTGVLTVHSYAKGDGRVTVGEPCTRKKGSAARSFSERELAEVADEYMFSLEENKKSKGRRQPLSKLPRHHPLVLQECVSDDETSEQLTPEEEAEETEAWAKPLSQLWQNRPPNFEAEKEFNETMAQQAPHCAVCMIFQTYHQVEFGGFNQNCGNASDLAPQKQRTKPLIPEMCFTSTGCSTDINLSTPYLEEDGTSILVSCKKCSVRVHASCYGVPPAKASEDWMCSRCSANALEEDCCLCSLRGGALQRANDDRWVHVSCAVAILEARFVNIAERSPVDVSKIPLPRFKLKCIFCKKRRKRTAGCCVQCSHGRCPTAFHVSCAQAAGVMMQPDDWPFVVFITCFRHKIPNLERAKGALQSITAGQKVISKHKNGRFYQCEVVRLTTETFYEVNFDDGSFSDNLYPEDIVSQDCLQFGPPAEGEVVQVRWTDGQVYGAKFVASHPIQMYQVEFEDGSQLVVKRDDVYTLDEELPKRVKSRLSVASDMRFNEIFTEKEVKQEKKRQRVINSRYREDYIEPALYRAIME

[2] = target: T2, Lysine-specific demethylase 4C (Homo sapiens, UniProt Q9H3R0)
T2 sequence (Q9H3R0 whole entry): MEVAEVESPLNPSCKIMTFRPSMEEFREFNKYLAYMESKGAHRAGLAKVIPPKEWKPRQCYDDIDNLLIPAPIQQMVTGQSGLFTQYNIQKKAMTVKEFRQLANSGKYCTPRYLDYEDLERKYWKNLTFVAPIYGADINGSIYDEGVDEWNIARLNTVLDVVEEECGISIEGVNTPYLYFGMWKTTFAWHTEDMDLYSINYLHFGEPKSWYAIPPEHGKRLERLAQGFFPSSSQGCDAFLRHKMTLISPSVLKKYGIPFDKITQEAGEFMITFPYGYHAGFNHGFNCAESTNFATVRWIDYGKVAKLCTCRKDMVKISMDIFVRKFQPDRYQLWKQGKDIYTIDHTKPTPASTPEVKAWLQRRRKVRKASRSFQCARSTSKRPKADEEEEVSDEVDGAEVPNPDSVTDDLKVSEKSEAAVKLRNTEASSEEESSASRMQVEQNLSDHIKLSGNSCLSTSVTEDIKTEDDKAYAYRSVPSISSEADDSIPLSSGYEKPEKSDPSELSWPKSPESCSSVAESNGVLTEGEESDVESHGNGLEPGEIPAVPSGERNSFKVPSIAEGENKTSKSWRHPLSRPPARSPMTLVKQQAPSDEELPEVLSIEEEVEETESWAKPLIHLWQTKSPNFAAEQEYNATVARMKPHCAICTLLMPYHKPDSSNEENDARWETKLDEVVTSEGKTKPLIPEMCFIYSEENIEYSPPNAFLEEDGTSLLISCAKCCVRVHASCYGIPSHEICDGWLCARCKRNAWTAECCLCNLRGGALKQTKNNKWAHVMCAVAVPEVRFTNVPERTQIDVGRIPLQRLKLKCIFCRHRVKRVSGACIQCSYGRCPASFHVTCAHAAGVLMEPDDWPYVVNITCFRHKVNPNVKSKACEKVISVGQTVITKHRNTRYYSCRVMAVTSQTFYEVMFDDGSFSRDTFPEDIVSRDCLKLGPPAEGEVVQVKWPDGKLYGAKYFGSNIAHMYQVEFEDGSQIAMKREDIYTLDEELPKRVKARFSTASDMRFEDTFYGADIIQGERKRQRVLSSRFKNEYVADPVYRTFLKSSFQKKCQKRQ

[3] = target: Lysine-specific demethylase 5B (Homo sapiens, UniProt Q9UGL1)
[4] = target: Lysine-specific demethylase 6A (Homo sapiens, UniProt O15550)
Lysine-specific demethylase 6A, sequence (O15550 whole entry): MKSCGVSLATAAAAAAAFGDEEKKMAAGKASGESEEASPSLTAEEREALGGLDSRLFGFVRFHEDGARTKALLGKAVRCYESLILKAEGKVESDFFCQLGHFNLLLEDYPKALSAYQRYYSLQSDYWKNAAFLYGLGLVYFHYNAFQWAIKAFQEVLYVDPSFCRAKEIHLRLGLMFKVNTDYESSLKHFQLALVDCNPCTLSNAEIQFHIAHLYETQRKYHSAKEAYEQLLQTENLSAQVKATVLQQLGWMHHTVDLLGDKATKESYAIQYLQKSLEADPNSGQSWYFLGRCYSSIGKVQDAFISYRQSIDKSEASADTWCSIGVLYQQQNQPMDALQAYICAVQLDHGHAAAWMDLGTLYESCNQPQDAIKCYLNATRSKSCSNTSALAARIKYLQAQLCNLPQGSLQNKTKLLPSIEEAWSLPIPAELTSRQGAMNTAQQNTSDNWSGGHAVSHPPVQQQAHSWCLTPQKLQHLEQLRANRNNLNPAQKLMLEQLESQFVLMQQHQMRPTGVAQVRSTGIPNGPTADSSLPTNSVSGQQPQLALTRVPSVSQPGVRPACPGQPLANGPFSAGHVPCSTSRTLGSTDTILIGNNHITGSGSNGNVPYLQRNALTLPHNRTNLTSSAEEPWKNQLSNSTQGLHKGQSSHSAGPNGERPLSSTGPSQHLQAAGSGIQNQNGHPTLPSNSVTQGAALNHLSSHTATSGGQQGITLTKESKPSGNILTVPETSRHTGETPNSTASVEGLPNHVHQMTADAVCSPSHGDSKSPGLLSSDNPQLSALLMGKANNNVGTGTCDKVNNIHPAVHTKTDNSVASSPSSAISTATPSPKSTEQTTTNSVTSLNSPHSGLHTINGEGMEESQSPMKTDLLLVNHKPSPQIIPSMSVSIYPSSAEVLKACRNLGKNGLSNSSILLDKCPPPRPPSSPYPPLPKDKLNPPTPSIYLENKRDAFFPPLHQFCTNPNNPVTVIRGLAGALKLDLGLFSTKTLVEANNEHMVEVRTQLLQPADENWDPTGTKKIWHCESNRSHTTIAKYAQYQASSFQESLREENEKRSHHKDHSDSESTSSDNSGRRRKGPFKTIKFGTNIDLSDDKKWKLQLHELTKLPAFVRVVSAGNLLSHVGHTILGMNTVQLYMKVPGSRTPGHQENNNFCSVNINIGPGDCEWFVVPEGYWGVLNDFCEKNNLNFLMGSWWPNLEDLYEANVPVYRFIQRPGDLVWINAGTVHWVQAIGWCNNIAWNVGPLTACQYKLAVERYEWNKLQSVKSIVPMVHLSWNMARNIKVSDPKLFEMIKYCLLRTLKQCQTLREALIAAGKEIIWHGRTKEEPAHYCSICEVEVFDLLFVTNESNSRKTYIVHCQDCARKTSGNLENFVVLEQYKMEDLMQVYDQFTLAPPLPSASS

[5] = target: Lysine-specific demethylase 5C (Homo sapiens, UniProt P41229); assay: biochemical
Lysine-specific demethylase 5C, sequence (P41229 whole entry): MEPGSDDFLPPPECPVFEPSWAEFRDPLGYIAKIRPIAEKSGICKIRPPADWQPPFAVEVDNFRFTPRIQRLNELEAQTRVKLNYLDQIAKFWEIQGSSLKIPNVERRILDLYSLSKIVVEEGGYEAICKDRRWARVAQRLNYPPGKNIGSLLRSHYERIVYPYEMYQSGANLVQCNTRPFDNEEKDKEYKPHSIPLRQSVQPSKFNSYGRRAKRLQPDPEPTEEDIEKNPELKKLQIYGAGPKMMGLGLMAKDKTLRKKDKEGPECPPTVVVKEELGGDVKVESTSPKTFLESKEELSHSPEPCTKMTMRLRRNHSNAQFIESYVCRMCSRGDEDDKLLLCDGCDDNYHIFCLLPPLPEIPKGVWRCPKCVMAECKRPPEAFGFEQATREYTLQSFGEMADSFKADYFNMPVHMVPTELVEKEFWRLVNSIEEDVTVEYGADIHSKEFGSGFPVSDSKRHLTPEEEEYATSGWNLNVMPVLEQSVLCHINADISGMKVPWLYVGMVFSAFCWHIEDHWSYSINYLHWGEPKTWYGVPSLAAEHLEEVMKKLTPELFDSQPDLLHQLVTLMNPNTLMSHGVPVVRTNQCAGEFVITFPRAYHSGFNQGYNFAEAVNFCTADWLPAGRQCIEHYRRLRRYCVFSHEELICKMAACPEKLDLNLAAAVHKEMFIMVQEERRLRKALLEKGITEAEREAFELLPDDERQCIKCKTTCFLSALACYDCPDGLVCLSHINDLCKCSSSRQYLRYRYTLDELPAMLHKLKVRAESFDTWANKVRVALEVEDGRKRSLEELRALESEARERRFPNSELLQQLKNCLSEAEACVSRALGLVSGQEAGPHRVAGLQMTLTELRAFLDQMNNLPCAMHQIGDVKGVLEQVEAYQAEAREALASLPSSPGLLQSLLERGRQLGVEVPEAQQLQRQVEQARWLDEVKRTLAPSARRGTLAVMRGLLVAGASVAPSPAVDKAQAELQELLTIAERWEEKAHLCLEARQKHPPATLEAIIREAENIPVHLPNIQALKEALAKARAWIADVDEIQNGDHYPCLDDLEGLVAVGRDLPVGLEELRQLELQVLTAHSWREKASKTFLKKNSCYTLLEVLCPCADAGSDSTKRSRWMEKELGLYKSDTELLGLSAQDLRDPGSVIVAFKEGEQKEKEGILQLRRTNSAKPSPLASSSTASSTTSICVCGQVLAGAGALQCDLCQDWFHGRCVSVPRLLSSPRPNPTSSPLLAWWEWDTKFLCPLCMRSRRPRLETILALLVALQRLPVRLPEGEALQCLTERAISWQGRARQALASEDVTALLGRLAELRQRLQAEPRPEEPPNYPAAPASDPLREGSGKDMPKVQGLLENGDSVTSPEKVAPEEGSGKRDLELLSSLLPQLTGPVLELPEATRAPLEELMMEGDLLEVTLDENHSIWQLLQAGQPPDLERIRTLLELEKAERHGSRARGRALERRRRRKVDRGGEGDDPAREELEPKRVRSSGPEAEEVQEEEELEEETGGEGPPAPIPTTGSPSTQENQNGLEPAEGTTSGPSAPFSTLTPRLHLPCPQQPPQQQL

[6] = target: Lysine-specific demethylase 6B (Homo sapiens, UniProt O15054); assay: biochemical
Lysine-specific demethylase 6B, sequence (O15054 whole entry): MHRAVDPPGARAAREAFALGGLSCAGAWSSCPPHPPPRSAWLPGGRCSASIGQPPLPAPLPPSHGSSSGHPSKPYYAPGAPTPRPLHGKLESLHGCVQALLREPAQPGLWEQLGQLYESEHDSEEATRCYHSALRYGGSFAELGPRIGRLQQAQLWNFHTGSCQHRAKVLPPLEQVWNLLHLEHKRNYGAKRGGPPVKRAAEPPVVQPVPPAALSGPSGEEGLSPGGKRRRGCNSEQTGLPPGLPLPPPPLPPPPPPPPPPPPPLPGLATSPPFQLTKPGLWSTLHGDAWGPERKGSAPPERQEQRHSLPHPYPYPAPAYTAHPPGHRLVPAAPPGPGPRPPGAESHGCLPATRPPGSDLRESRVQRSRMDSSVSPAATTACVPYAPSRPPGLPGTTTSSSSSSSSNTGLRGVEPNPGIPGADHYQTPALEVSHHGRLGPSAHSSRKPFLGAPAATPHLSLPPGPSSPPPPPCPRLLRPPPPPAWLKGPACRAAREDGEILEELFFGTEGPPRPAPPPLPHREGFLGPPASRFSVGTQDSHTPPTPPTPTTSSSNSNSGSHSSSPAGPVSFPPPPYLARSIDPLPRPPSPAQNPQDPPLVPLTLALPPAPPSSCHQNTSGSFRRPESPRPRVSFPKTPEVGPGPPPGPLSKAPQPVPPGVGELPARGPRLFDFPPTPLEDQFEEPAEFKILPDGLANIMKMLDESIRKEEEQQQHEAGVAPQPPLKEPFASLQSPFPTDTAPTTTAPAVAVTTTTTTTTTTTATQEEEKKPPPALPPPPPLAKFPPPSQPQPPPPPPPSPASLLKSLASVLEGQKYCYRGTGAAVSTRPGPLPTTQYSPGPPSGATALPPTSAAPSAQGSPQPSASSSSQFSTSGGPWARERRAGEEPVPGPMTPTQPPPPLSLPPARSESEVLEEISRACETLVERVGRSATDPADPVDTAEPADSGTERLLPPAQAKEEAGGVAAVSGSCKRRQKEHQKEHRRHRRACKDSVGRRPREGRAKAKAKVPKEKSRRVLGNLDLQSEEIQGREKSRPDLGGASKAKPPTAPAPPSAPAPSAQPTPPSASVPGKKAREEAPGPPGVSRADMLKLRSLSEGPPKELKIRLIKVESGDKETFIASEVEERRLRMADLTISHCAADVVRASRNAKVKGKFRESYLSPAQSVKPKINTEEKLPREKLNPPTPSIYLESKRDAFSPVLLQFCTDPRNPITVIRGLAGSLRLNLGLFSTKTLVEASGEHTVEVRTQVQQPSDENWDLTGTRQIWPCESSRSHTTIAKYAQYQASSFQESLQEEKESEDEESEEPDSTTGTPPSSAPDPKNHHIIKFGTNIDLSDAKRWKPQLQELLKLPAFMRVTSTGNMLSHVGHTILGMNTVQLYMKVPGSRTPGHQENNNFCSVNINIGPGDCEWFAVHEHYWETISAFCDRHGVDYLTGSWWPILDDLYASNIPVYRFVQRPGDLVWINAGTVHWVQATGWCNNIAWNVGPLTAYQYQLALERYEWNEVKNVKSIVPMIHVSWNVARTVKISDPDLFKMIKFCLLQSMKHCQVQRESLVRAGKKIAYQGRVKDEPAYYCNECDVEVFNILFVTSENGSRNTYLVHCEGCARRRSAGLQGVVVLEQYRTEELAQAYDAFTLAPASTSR

Row | Structure (SMILES) | IC50 [1] [nM] | IC50 [2] [nM] | IC50 [3] [nM] | IC50 [4] [nM] | IC50 [5] [nM] | IC50 [6] [nM]
1 | CCN(CCN(C)C)C(=O)CNCc1cc(CNC(=O)C(F)(F)F)ccn1 | > 2500 | > 2500 | 250 | > 2500 | 250 | > 2500
2 | CCN(CC)CCCCNCc1cc(C=O)ccn1 | > 2500 | > 2500 | < 250 | > 2500 | < 250 | > 2500
3 | CCN(CCN(C)C)C(=O)CNCc1cc(C(=O)O)ccn1 | < 100 | < 100 | < 100 | > 1000 | < 100 | > 1000
